Test results: patent US7371555B2, “Polypeptides having α-H-α-amino acid amide racemase activity and nucleic acids encoding the same” (DSM IP Assets B.V., priority 2002, dated 2008)

Legend:
[1] = test system: CFE from E. coli DH10B/pOa(1)PLV49B10 combined with the L-aminopeptidase from Pseudomonas putida ATCC 12633; assay: Racemase activity test with DL-2-amino-5-[1,3]dioxolan-2-yl-pentanoic acid amide, CFE combined with L-aminopeptidase (Example 12); type: biochemical, Ochrobactrum anthropi IA; Pseudomonas putida ATCC 12633
Experimental: (§1) A reaction mixture of 10 ml (total volume including enzyme preparations) was prepared containing 50 mM HEPES-NaOH, pH 8.0, 20 μM pyridoxal-5-phosphate, 0.4 mg/ml BSA, 1 mM dithiothreitol, and 75 mM of DL-2-aminobutyric acid amide. Reaction was started by the addition of 0.4 ml of the thawed CFE of E. coli DH10B/pOa(1)PLV49B10 and 0.17 ml of a solution containing L-aminopeptidase from P. putida ATCC 12633. The reaction mixture was incubated at 37° C. for 18 h. At certain time intervals samples of 1 ml were taken and transferred to vials containing 1 ml of MeOH to stop the reaction. Analysis of these samples to determine the concentrations L- and D-2-aminobutyric acid and L- and D-2-aminobutyric acid amide was done by HPLC according to the protocol of Example 11.
In a very similar set-up, the combined activity of the α-H-α-amino acid amide racemase from O. anthropi IA and the L-aminopeptidase from P. putida ATCC 12633 was determined towards the more complex substrate DL-2-amino-5-[1,3]dioxolan-2-yl-pentanoic acid amide. The molecular structure of this amide can be found in the substrate table in Example 8. In this experiment 1 ml of the thawed CFE from E. coli DH10B/pOa(1)PLV49B10 was used together with 1 ml of a solution containing L-aminopeptidase from P. putida ATCC 12633. Reaction proceeded for 120 hours. Analysis of these samples to determine the concentrations L- and D-2-amino-5-[1,3]dioxolan-2-yl-pentanoic acid and L- and D-2-amino-5-[1,3]dioxolan-2-yl-pentanoic acid amide was done by HPLC according to the following protocol. • column: Crownether Cr(−) (150 mm×4.0 mm ID) • eluent: Perchloric acid in water, pH=1.0 • flow: 1.2 ml/min. • column temp.: 18° C. • inj. volume: 20 μl • detection: fluorescence detection after post-column reaction with o-phthalaldehyde and 2-mercaptoethanol in 0.4 M borate buffer. (wavelength ex=338 nm and em>420 nm)

[2] = test system: CFE from E. coli DH10B/pOa(1)PLV49B10 combined with the L-aminopeptidase from Pseudomonas putida ATCC 12633; assay: Racemase activity test with DL-2-aminobutyric acid amide, CFE combined with L-aminopeptidase (Example 11); type: biochemical, Ochrobactrum anthropi IA; Pseudomonas putida ATCC 12633
Experimental: In this experiment, the E. coli DH10B/pOa(1)PLV49B10 CFE from Example 11 was used. It was combined with a preparation containing the L-aminopeptidase from P. putida ATCC 12633. This is the same L-enantioselective enzyme as was used as L-aminopeptidase help solution in the screening of the O. anthropi IA and A. nicotianae NCIMB 41126 gene libraries (Examples 3 and 3A).
as §1

[3] = test system: CFE from E. coli DH10B/pOa(1)PLV49B10 containing the α-H-α-amino acid amide racemase from O. anthropi IA; assay: Racemase activity test with DL-2-aminobutyric acid amide and CFE from E. coli DH10B/pOa(1)PLV49B10 (Example 10); type: biochemical, Ochrobactrum anthropi IA; details: Strain A; for Conversion: conversion to the L-acid
Experimental: Also in this case, E. coli TOP10/pBAD/Myc-HisC was treated in exactly the same way to serve as negative control.
To determine the activity of the CFE from E. coli DH10B/pOa(1)PLV49B10 and E. coli TOP10/pBAD/Myc-HisC, reaction mixtures of 10 ml each were prepared containing 50 mM HEPES-NaOH, pH 8.0, 20 μM pyridoxal-5-phosphate, 0.4 mg/ml BSA, 1 mM dithiothreitol, and 75 mM of DL-2-aminobutyric acid amide. Reactions were started by the addition of 1 ml of the thawed CFE of E. coli DH10B/pOa(1)PLV49B10 or E. coli TOP10/pBAD/Myc-HisC (blank) and were incubated at 37° C. for 21.5 h. At regular time intervals samples of 1 ml were taken and transferred to vials containing 1 ml of MeOH to stop the reaction. Analysis of these samples to determine the concentrations L- and D-2-aminobutyric acid and L- and D-2-aminobutyric acid amide was done by HPLC according to the following protocol. • column: Sumichiral OA5000 from Sumika (150×4.6 mm I.D., 5μ)+guard column • eluent: 4 mM CuSO4 in water • flow: 1 ml/min. • column temp.: 10° C. • inj. volume: 6 μl • detection: fluorescence detection after post-column reaction with o-phthalaldehyde and 2-mercaptoethanol in 0.4 M borate buffer with addition of EDTA (wavelength ex=338 nm and em>420 nm)

[4] = test system: E. coli DH10B/pOA(1)PLV49B10 cells containing the α-H-α-amino acid amide racemase gene from Ochrobactrum anthropi IA; assay: Racemase activity test with DL-leucine amide and whole E. coli cells (Example 6); type: cell-based; details: Strain A
Experimental: To determine the activity of E. coli/pOA(1)PLV49B10 and the E. coli control, the above-mentioned cell pellets were thawed and resuspended to a total volume of 1 ml with 50 mM HEPES-NaOH buffer, pH 7.7. Then, reaction mixtures of 10 ml each were prepared containing 50 mM HEPES-NaOH buffer (pH 7.7), 10 μM pyridoxal-5-phosphate (PLP), 2.5 wt % of D-leucine amide, if applicable 20 mM of EDTA to suppress the E. coli amidase activity, and 0.5 ml of the E. coli/pOA(1)PLV49B10 and E. coli DH10B/pZErO-GFPuv-wrong-orientation cell suspensions or water (for chemical blanks). Reactions were started by the addition of the cells. Reaction mixtures were incubated at 30° C. and 175 rpm. Directly after addition of the cells (t=0 hours) and after 27 and 43 hours samples were taken in which the reaction was stopped by removal of the cells via centrifugation followed by 0.22 μM filtration. Finally, the filtered samples were stored at −20° C. until analysis by chiral HPLC as described below: • column: Sumichiral OA5000 from Sumika (150×4.6 mm I.D., 5μ)+guard column • eluent: 85 v/v % 2 mM CuSO4+15 v/v % methanol • flow: 1.0 ml/min. • column temp.: 40° C. • inj. volume: 5 μl • detection: fluorescence detection after post-column reaction with o-phthalaldehyde and 2-mercaptoethanol (wavelength ex=338 nm and em>420 nm)
The E. coli DH10B/pOA(1)PLV49B10 and E. coli DH10B/pZErO-GFPuv-wrong-orientation cell suspensions from Example 5 (Preparation of the cells) were used. To determine their activity towards racemic DL-leucine amide, identical reaction mixtures were prepared as in Example 5, except that 2.5 wt % of DL-leucine amide was used, EDTA was omitted in all reactions, and the reactions were started with […] of the cell suspensions. Samples were taken directly after the start of the reactions (t=0 hours) and after 8 and 24 hours.

[5] = test system: lyophilized O. anthropi IA cells; assay: α-H-α-amino acid amide racemase activity of lyophilized O. anthropi IA cells; type: biochemical, Ochrobactrum anthropi IA; details: control experiment
Experimental: O. anthropi IA cells were cultivated in Medium A containing DL-α-amino-ε-caprolactam (2 g/l) as sole nitrogen source. After incubation at 28° C. and 200 rpm for three days (OD620 nm=4.7), cells were harvested by centrifugation, washed in 20 mM HEPES-NaOH buffer of pH 7.7 and lyophilized.
The assay mixture consisted of 10 mM HEPES-NaOH buffer (pH 7.7) containing toluene (2,5 v/v %), pyridoxal-5-phosphate (20 μM), D- or L-leucine amide (2.5 m %) and in some cases EDTA (20 mM). Per assay 150 mg of lyophilized cells were used. Chemical blanks (with the assay mixture without the O. anthropi IA cells) were used as a negative control. All reaction mixtures (including the blanks) were incubated for approximately 72 hours at 40° C. before the reaction was stopped by the addition of 9 volumes of 1 M H3PO4. Finally, the reaction mixtures were analyzed by HPLC to determine the concentrations of D- and L-leucine amide and of D- and L-leucine. o-Phthaldehyde in combination with D-3-mercapto-2-methylpropionic acid was used in this HPLC method as a chiral reagent for the enantioseparation of these amino compounds (Duchateau, et al., J. Chromatogr. (1992) 623:237-245).
In a number of reactions EDTA was added to inhibit L- and/or D-specific amidase(s) present in the O. anthropi IA cells.
Without EDTA, amidases convert the substrate and/or product α-H-α-amino acid amides into α-H-α-amino acids thereby preventing direct detection of the other α-H-α-amino acid amide enantiomer as racemization product. […] Formation of L-leucine from D-leucine amide could not be detected in the chemical blank.

NC(=O)C(N)CCCC1OCCO1 (racemic) [DL-2-amino-5-[1,3]dioxolan-2-yl-pentanoic acid amide]
Conversion ([1]; incubation time 0 h): 5.6%
D-Abu ([1]; incubation time 0 h): 0.0 mM
D-Abu amide ([1]; incubation time 0 h): 36.6 mM
L-Abu ([1]; incubation time 0 h): 4.3 mM
L-Abu amide ([1]; incubation time 0 h): 36.5 mM
Conversion ([1]; incubation time 3.6 h): 49.5%
D-Abu ([1]; incubation time 3.6 h): 0.0 mM
D-Abu amide ([1]; incubation time 3.6 h): 35.7 mM
L-Abu ([1]; incubation time 3.6 h): 37.6 mM
L-Abu amide ([1]; incubation time 3.6 h): 2.7 mM
Conversion ([1]; incubation time 22.1 h): 56.6%
D-Abu ([1]; incubation time 22.1 h): 0.1 mM
D-Abu amide ([1]; incubation time 22.1 h): 29.9 mM
L-Abu ([1]; incubation time 22.1 h): 40.3 mM
L-Abu amide ([1]; incubation time 22.1 h): 1.0 mM
Conversion ([1]; incubation time 53.2 h): 61.1%
D-Abu ([1]; incubation time 53.2 h): 0.1 mM
D-Abu amide ([1]; incubation time 53.2 h): 27.4 mM
L-Abu ([1]; incubation time 53.2 h): 43.5 mM
L-Abu amide ([1]; incubation time 53.2 h): 0.1 mM
D-Abu ([1]; incubation time 120.2 h): 0.4 mM
D-Abu amide ([1]; incubation time 120.2 h): 23.7 mM
L-Abu ([1]; incubation time 120.2 h): 46.0 mM
L-Abu amide ([1]; incubation time 120.2 h): 0.1 mM

CCC(N)C(N)=O (racemic) [DL-2-aminobutyric acid (Abu) amide, DL-2-aminobutyric acid amide]
Conversion ([2]; incubation time 0 h): 0.7%
D-Abu ([2]; incubation time 0 h): 0.0 mM
D-Abu amide ([2]; incubation time 0 h): 36.2 mM
L-Abu ([2]; incubation time 0 h): 0.5 mM
L-Abu amide ([2]; incubation time 0 h): 34.1 mM
Conversion ([2]; incubation time 0.5 h): 17.1%
D-Abu ([2]; incubation time 0.5 h): 0.0 mM
D-Abu amide ([2]; incubation time 0.5 h): 34.6 mM
L-Abu ([2]; incubation time 0.5 h): 11.7 mM
L-Abu amide ([2]; incubation time 0.5 h): 22.2 mM
Conversion ([2]; incubation time 1.0 h): 42.4%
D-Abu ([2]; incubation time 1.0 h): 0.1 mM
D-Abu amide ([2]; incubation time 1.0 h): 36.4 mM
L-Abu ([2]; incubation time 1.0 h): 32.2 mM
L-Abu amide ([2]; incubation time 1.0 h): 7.3 mM
Conversion ([2]; incubation time 1.5 h): 51.9%
D-Abu ([2]; incubation time 1.5 h): 0.0 mM
D-Abu amide ([2]; incubation time 1.5 h): 33.0 mM
L-Abu ([2]; incubation time 1.5 h): 38.5 mM
L-Abu amide ([2]; incubation time 1.5 h): 2.7 mM
Conversion ([2]; incubation time 2.0 h): 56.7%
D-Abu ([2]; incubation time 2.0 h): 0.0 mM
D-Abu amide ([2]; incubation time 2.0 h): 30.4 mM
L-Abu ([2]; incubation time 2.0 h): 41.9 mM
L-Abu amide ([2]; incubation time 2.0 h): 1.7 mM
Conversion ([2]; incubation time 18 h): 97.3%
D-Abu ([2]; incubation time 18 h): 1.6 mM
D-Abu amide ([2]; incubation time 18 h): 0.4 mM
L-Abu ([2]; incubation time 18 h): 70.8 mM
L-Abu amide ([2]; incubation time 18 h): 0.0 mM
D-Abu ([3]; incubation time 0 h): 0.0 mM
D-Abu amide ([3]; incubation time 0 h): 42.3 mM
L-Abu ([3]; incubation time 0 h): 1.4 mM
L-Abu amide ([3]; incubation time 0 h): 40.5 mM
Conversion ([3]; incubation time 0 h): 1.6%
D-Abu ([3]; incubation time 0.75 h): 0.0 mM
D-Abu amide ([3]; incubation time 0.75 h): 39.6 mM
L-Abu ([3]; incubation time 0.75 h): 12.3 mM
L-Abu amide ([3]; incubation time 0.75 h): 29.3 mM
Conversion ([3]; incubation time 0.75 h): 15.2%
D-Abu ([3]; incubation time 2 h): 0.0 mM
D-Abu amide ([3]; incubation time 2 h): 34.7 mM
L-Abu ([3]; incubation time 2 h): 29.1 mM
L-Abu amide ([3]; incubation time 2 h): 17.8 mM
Conversion ([3]; incubation time 2 h): 35.7%
D-Abu ([3]; incubation time 4.65 h): 0.1 mM
D-Abu amide ([3]; incubation time 4.65 h): 20.8 mM
L-Abu ([3]; incubation time 4.65 h): 52.3 mM
L-Abu amide ([3]; incubation time 4.65 h): 11.5 mM
Conversion ([3]; incubation time 4.65 h): 61.8%
D-Abu ([3]; incubation time 8.25 h): 0.5 mM
D-Abu amide ([3]; incubation time 8.25 h): 12.4 mM
L-Abu ([3]; incubation time 8.25 h): 64.9 mM
L-Abu amide ([3]; incubation time 8.25 h): 8.6 mM
Conversion ([3]; incubation time 8.25 h): 75.1%
D-Abu ([3]; incubation time 21.5 h): 1.4 mM
D-Abu amide ([3]; incubation time 21.5 h): 6.7 mM
L-Abu ([3]; incubation time 21.5 h): 71.7 mM
L-Abu amide ([3]; incubation time 21.5 h): 5.8 mM
Conversion ([3]; incubation time 21.5 h): 83.9%

CC(C)CC(N)C(N)=O (racemic) [DL-leucine amide]
D-leucine ([4]; incubation time 0 h): 0.001 wt %
D-leucine amide ([4]; incubation time 0 h): 1.19 wt %
L-leucine ([4]; incubation time 0 h): 0.003 wt %
L-leucine amide ([4]; incubation time 0 h): 1.25 wt %
D-leucine ([4]; incubation time 8 h): 0.004 wt %
D-leucine amide ([4]; incubation time 8 h): 1.24 wt %
L-leucine ([4]; incubation time 8 h): 1.45 wt %
L-leucine amide ([4]; incubation time 8 h): 0.33 wt %
D-leucine ([4]; incubation time 24 h): 0.028 wt %
D-leucine amide ([4]; incubation time 24 h): 0.43 wt %
L-leucine ([4]; incubation time 24 h): 2.25 wt %
L-leucine amide ([4]; incubation time 24 h): 0.14 wt %

CC[C@@H](N)C(N)=O [D-aminobutyric acid amide]
Conversion ([3]; incubation time 21.5 h): 85.4%

CC(C)C[C@H](N)C(=O)O [leucine]
racemization of leucine [5]: did not racemize
